Data taken from patent US9956233B2 (priority 2015, dated 2018).

How the values were obtained:
[1] = system: primary dopaminergic neurons; experiment: MPP+ toxicity in primary mesencephalic neuronal cultures, TH+ neurite length; format: cell-based; conditions: 10 μM, 24 h
Procedure: Primary […] neurons were treated with 10 μM MPP+ alone or co-treated with 100-300 nM mito-Met for 24 h. […] FIG. 7B depicts quantification of neurite length of TH+ neurons.
Primary mesencephalic neuronal cultures were treated for 24 h with 10 μM MPP^+ alone or co-treated with 100 and 300 nM mito-Met, dopaminergic neurotoxicity was assessed by TH immunocytochemistry (FIG. 7A) and quantification of neurite length of TH^+ neurons (FIG. 7B). MPP^+ reduced the neurite length of TH-immunoreactive neurons to almost 45% of the vehicle-treated group, indicating significant dopaminergic neurotoxicity.

AMPK = AMPK activation, phosphorylation at T172; format: cell-based; conditions: N27 cells, 10-100 μM, 24 h
Description: In this example we assessed whether mito-Met alters mitochondrial biogenesis in a dopaminergic cell model.

[2] = diabetic patients; cited from earlier work
[3] = system: complex I in the mitochondrial respiratory chain; conditions: cited from earlier work
Tfam = Tfam protein and mRNA expression; conditions: N27 cells, 10-100 μM, 24 h

| Structure (SMILES) | neurite length of TH-immunoreactive neurons, of the vehicle-treated group [1] | phosphorylation of AMPK Thr172 (AMPK) | tolerated daily doses [2] | effect on mitochondrial complex-1 activity ([3]; at approximately 0.1 mM) | inhibition of complex I in the mitochondrial respiratory chain ([3]; in vitro, millimolar concentrations) | protein levels of Tfam (Tfam) |
| --- | --- | --- | --- | --- | --- | --- |
| C[n+]1ccc(-c2ccccc2)cc1 [MPP^+] | ~45% |  |  |  |  |  |
| CN(C)C(=N)N=C(N)N [metformin, Metformin] |  | significantly increased | 2-3 grams | does not affect | inhibit | upregulated |
